Laboratory results taken from patent US7625718B2, “SVCT2 transporters expressed in blood brain barrier cells” (XenoPort, Inc., priority 2005, dated 2009).

Tests used:
hSVCT2 [1] = molecular target: T1, hSVCT2 (Homo sapiens, UniProt Q9UGH3); assay: hSVCT2 competition uptake assay in HEK-TREx-hSVCT2 cells; assay type: cell-based
T1 construct: expressed in transfected cells; host or cells: HEK-TREx cells, tetracycline-induced
Description: A modified competition uptake assay was developed to determine the ability of a test compound(s) to inhibit the uptake of radiolabeled substrates into […] induced to over-express hSVCT2. The results are stated as affinities (IC50). The competition uptake assay was prepared as follows: Compounds were prepared for assay by diluting a 100 mM stock concentration (in DMSO) to the appropriate working concentration. Typically, seven-point dose response curves were prepared starting at a final assay concentration of 1 mM and carrying out three-fold dilutions. […] Scintillation fluid (200 μl) (Optiphase Supermix (Perkin Elmer) was added to each well, and the plate was covered with a 96-well adhesive plate cover and placed on a shaker for 10 minutes. The plates were counted on a 96-well plate scintillation counter for 60 sec/well. The data were analyzed using a sigmoidal dose response curve-fitting program (Prism, GraphPad, Inc, San Diego, Calif.; equation: one-site competition). FIG. 2 depicts the results of a competition experiment using HEK-TREx-SVCT2 cells. ^3H-Ascorbic acid was used as the substrate and unlabeled ascorbic acid was used as the competitor. […] Non-specific uptake was determined by measuring the uptake into cells not induced to express the transporter (“no tet”). […]

hSVCT2 [2] = molecular target: T1, hSVCT2; assay: hSVCT2 direct uptake assay in HEK-TREx-hSVCT2 cells (LC-MS-MS); assay type: cell-based; details: HEK-TREx-hSVCT2 cells induced to express hSVCT2
Description: A modified direct uptake assay was developed to determine the ability of test compounds to be transported into HEK-TREx cells induced to over-express hSVCT2. Four concentrations (bracketing the affinity as measured by competition assays) per compound were routinely tested. Non-specific uptake was determined by measuring the uptake into cells not induced to express the transporter (“no tet”).
The direct uptake assays were prepared as follows: Compounds were prepared for assay by diluting a 100 mM stock concentration (in DMSO or water, depending on compound solubility) to the appropriate working concentration. Typically, four concentrations bracketing the IC50 were tested. The highest test concentration for each compound was made in an Eppendorf tube and diluted into HBSS. The samples were robustly vortexed and centrifuged for 10 minutes at 13,200 rpm to spin down any precipitate. The supernatant from these samples (˜150 μl/well) was carefully removed and placed into six wells of row A (cmpd 1: A1-6; cmpd 2: A7-12) or row E (cmpd 3: E1-6; cmpd 4: E7-12) of a 96-well polypropylene “compound” plate. Three additional 2-fold dilutions were made in the subsequent rows (B-D or […]) in HBSS. […]

PgP = molecular target: T2, PgP (Homo sapiens, UniProt P08183); assay: Transwell monolayer efflux assay in TREx-PgP MDCK cells; assay type: in vitro ADME
T2 construct: expressed in transfected cells; host or cells: MDCK cells, tetracycline-inducible
Description: Transwell monolayer efflux assays can be performed by transfecting MDCK cells with the tetracycline-inducible TREx-PgP expression vector. The cells optionally can be transfected with a nucleic acid encoding the transporter of interest. The transfected cells are seeded on polycarbonate filter membranes in transwell dishes and grown for 3-5 days, yielding a polarized monolayer with tight junctions between cells.

[3] = 2.5 nM, in the presence of 250 μM verapamil

T2 sequence (P08183 whole entry): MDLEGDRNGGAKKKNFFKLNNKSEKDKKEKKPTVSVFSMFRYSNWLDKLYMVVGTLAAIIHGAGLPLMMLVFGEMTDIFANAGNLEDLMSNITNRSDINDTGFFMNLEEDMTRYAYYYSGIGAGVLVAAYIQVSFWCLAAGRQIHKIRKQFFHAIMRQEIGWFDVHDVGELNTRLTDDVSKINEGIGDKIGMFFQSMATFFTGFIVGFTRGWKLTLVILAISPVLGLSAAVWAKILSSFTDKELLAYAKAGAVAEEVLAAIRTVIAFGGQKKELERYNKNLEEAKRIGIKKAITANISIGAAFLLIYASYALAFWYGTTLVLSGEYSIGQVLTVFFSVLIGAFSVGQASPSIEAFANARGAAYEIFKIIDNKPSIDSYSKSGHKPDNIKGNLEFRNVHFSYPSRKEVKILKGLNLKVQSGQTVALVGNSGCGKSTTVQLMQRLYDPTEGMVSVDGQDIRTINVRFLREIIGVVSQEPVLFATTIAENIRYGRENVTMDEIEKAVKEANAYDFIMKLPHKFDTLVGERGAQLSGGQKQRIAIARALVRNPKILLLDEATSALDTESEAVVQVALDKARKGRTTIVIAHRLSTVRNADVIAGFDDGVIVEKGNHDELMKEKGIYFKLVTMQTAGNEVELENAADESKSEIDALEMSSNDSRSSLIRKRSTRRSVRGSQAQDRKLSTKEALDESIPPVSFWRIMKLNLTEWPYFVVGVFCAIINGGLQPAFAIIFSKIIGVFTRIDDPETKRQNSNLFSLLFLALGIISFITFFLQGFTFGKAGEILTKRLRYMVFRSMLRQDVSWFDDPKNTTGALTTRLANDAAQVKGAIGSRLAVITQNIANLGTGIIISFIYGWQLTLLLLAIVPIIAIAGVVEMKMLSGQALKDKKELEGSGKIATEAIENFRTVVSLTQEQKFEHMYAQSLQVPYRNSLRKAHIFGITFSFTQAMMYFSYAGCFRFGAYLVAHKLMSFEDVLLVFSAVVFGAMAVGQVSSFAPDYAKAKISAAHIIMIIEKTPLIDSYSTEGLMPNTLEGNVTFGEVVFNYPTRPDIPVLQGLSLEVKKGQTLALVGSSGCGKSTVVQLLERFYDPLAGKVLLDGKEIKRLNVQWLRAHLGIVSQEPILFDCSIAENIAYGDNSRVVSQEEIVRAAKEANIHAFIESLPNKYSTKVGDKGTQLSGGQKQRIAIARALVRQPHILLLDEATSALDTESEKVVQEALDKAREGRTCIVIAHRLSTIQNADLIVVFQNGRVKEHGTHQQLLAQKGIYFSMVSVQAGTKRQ
T1 sequence (Q9UGH3 whole entry): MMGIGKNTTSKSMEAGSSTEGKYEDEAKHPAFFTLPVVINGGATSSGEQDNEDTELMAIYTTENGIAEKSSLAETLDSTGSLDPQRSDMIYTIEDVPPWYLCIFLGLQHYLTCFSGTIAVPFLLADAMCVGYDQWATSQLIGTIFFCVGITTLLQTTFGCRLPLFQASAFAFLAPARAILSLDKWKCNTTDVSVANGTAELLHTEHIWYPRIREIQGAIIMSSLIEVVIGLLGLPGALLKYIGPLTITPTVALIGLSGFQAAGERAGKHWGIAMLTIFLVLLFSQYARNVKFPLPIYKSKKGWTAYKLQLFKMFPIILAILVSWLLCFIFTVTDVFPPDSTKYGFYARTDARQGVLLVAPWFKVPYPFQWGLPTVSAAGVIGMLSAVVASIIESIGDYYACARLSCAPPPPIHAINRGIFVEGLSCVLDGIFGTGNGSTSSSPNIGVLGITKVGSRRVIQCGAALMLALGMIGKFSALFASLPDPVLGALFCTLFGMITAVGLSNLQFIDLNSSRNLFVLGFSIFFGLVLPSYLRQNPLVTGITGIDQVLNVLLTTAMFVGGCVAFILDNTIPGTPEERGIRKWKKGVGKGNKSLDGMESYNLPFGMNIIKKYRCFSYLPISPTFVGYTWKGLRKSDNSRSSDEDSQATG

Row | SMILES | uptake of labeled ascorbic acid as concentration of unlabeled ascorbic acid increased (hSVCT2 [1]; cells induced to express SVCT2, ^3H-ascorbic acid substrate, FIG. 2) | IC50 (hSVCT2 [1]; inhibition of radiolabeled ascorbic acid uptake, HEK-TREx-hSVCT2 cells induced to express hSVCT2) | Direct Uptake Vmax (hSVCT2 [2]) | efflux transporter substrate status (PgP) | apical to basolateral transport (PgP; [3]) | basolateral to apical transport (PgP; [3])
1 | O=C1O[C@H]([C@@H](O)CO)C(O)=C1O [Ascorbic Acid] | decreased | 55 µM | 21 pmol/min/well |  |  | 
2 | CC[C@]1(O)C[C@@H]2CN(CCc3c([nH]c4ccccc34)[C@@](C(=O)OC)(c3cc4c(cc3OC)N(C)[C@H]3[C@@](O)(C(=O)OC)[C@H](OC(C)=O)[C@]5(CC)C=CCN6CC[C@]43[C@@H]65)C2)C1 [^3H-vinblastine] |  |  |  | substrate of PgP | strongly increased | strongly decreased
